We go through two compounds from US10835532B2, “Muscarinic agonists as cognitive enhancers” (The University of Toledo, priority 2008, dated 2020).

Entries after “also recorded” stand apart in the source; their conditions may differ.

The test system of one data set is Alzheimer's subjects. To be noted: cited from earlier work.
In the next data set the test system is Long Evans rats. The experiment in a line: Delayed spontaneous alternation in four-arm cross maze (working memory). Format: in vivo, rat. The text has this: Various neurodegenerative diseases and psychiatric disorders are marked by alterations in brain M1 muscarinic cholinergic receptor function and cognitive deficits including working memory and cognitive flexibility impairments. Alleviating such deficits in conditions such as Alzheimer's disease and schizophrenia has been limited due to a lack of agonists with M1 muscarinic receptor subtype specificity. CDD-102A is a functionally-selective M1 agonist with lower activity at other muscarinic receptor subtypes. The present experiment investigated the effects of systemic treatment with CDD-102A on working memory and/or attentional set-shifting in rats. All testing occurred in a four-arm cross maze. Delayed (30 sec) spontaneous alternation in Long Evans rats was used as a test for working memory. […] A shift between a place and visual cue discrimination was used as an attentional set-shifting test. In this set of experiments, rats received either vehicle or CDD-102A (0.003-0.1 mg/kg) 30 minutes prior to testing in a place-visual cue set-shifting task. To evaluate the effects of muscarinic agonists on memory function in normal animals, rats were tested on a delayed spontaneous alternation task in a modified T-maze. The task takes advantage of rats' natural tendency to alternate. Animals were placed in a 4-arm maze shaped like a “+”. If a rat chose four different arms in four consecutive choices it was scored as an alternation. A delay was inserted between arm choices to help assess memory function. In the delay version of the task, CDD-0102A (a functionally selective M1 agonist) improved memory function in a dose dependent manner (see FIG. 1). All testing was carried out in a four-arm cross-maze made of 0.6 cm thick black plastic was used for all behavioral testing. The maze was placed on a table that was 72 cm above the floor. Each arm was 55 cm long 10 cm wide. The height of the arm walls was 15.0 cm. […] The number and sequence of arm entries was recorded. An arm entry was recorded when all four paws entered an arm. […]

A further data set has as its system rats. Nature of the data set: Place-visual cue attentional set-shifting task (cognitive flexibility). Format: in vivo, rat. The text has this:
Various neurodegenerative diseases and psychiatric disorders are marked by alterations in brain M1 muscarinic cholinergic receptor function and cognitive deficits including working memory and cognitive flexibility impairments. Alleviating such deficits in conditions such as Alzheimer's disease and schizophrenia has been limited due to a lack of agonists with M1 muscarinic receptor subtype specificity. CDD-102A is a functionally-selective M1 agonist with lower activity at other muscarinic receptor subtypes. The present experiment investigated the effects of systemic treatment with CDD-102A on working memory and/or attentional set-shifting in rats. All testing occurred in a four-arm cross maze. Delayed (30 sec) spontaneous alternation in Long Evans rats was used as a test for working memory. […] A shift between a place and visual cue discrimination was used as an attentional set-shifting test. In this set of experiments, rats received either vehicle or CDD-102A (0.003-0.1 mg/kg) 30 minutes prior to testing in a place-visual cue set-shifting task. A treatment was administered either prior to the acquisition phase or prior to the shift phase. […] To examine cognitive flexibility, animals were evaluated for their ability to learn a place-visual cue task. Local cues in the maze arms included a black board in one arm and white board in the other arm. The cues were switched between the choice arms randomly across trials so the same cue was not always in the same location. Rats first learned to use a place strategy—always enter the same arm to receive a cereal reinforcement. Criterion was set at 10 consecutive correct trials. No treatment was given to rats prior to learning the place strategy test. The results are shown with the two bars on the left side of the graph in FIG. 2, showing that learning of a place-visual cue task. CDD-0102A, at a dose of 0.03 mg/kg decreased the number of trials to criterion (10 consecutive correct choices). Vehicle (N=3), CDD-0102A (N=4). The following day, rats had to inhibit using a place strategy and learn a visual cue strategy. That is, a rat had to choose the arm that contained a particular color cue (e.g., black). The criterion again was set at 10 consecutive correct trials. Rats received either saline (N=3) or CDD-0102A at 0.03 or 0.1 mg/kg (N=4) 30 minutes prior to testing. The results are shown in the middle of FIG. 2. […] Similar studies evaluated the ability of animals to shift from learning a visual cue task to a place strategy. Again criterion was set at 10 consecutive correct trials. Rats received either saline (N=3) or CDD-0102A at 0.03 or 0.1 mg/kg (N=4) 30 minutes prior to testing. The results are shown in the middle of FIG. 3. […] All testing was carried out in a four-arm cross-maze made of 0.6 cm thick black plastic was used for all behavioral testing. The maze was placed on a table that was 72 cm above the floor. Each arm was 55 cm long 10 cm wide. The height of the arm walls was 15.0 cm. Each arm contained a food well (3.2 cm diameter×1.6 cm high) that was 3 cm away from the end wall. Each food-well hole was 2.3 cm in diameter and 1.6 cm deep.

The next data set relates to rat. The experiment in a line: Salivation following i.p. injections in the rat. In kind it is in vivo. The text has this:
FIG. 6 presents a graph comparing the effects of CDD-0102A on memory function and salivation following i.p. injections in the rat.

[1] abbreviates: rats, 0.03 or 0.1 mg/kg 30 minutes prior to testing, compared to controls, hydrochloride.
The mark [2] stands for this setting: shift from place cue task to visual cue task, 0.03 and 0.1 mg/kg.
Setting [3] is: shift from visual cue task to place cue task, 0.03 and 0.1 mg/kg.

Regarding `CCCCCCOc1nsnc1C1=CCCN(C)C1` [xanomeline], the “Side effects associated with activation of M3 receptors (salivation, diarrhea and profuse sweating)” value with Alzheimer's subjects (Alzheimer's subjects, limited subject compliance) was “produced unwanted side effects”. For the same compound, the “Psychiatric symptoms such as hallucinations” value with Alzheimer's subjects (phase II clinical trials in Alzheimer's subjects) is listed as “significantly improved”.
For `CCc1noc(C2CN=CNC2)n1.Cl` (stereo not drawn) [CDD-0102A, 5-(3-ethyl-1,2,4-oxadiazol-5-yl)-1,4,5,6-tetrahydropyrimidine hydrochloride], the “Memory function in the delay version of the spontaneous alternation task” value in the data set on Long Evans rats (normal rats, i.p., dose dependent (FIG. 1)) is “improved”. The “Delayed spontaneous alternation performance” value in the data set on Long Evans rats (rats, 0.1, 0.3 and 1 mg/kg i.p. 30 minutes before testing, 30 sec delay, listed as CDD-102A, hydrochloride) was “significantly enhanced”. The “Number of arm entries (locomotor activity)” value in the data set with Long Evans rats (rats, all the doses tested, i.p.) was “did not alter”. In addition, the “Acquisition of a place or visual cue discrimination” value with rats (rats, 0.003-0.1 mg/kg 30 minutes prior to the acquisition phase) was “did not affect”. In addition, in the data set with rats (rats, 0.03 and 0.1 mg/kg, 30 minutes prior to the shift phase), the “Shift between a place and visual cue discrimination” value is “significantly enhanced”. In the data set with rats (setting [1]), the “Trials to criterion (10 consecutive correct choices), shift from place cue task to visual cue task” value is “about half the trials; also recorded: decreased” and the “Trials to criterion (10 consecutive correct choices), shift from visual cue task to place cue task” value was “decreased; also recorded: about half the trials”. In the data set on rats (rats, shift to the place or to the visual cue strategy), the “Ability to initially inhibit a previously relevant strategy and maintain a new, relevant strategy once selected” value was “significantly increased”. Besides, in the data set with rats (setting [2]), the “Number of never-reinforced errors” value is reported as “decreased”, the “Number of perseverative errors” value is “decreased” and the “Number of regressive errors” value was “decreased”. In the data set with rats (setting [3]), the “Number of never-reinforced errors” value is recorded as “no significant impact”, the “Number of perseverative errors” value is on record as “decreased” and the “Number of regressive errors” value was “decreased”. Further, in the data set with rat, the “Lowest dose producing salivation” value turned out to be 0.3 mg/kg; the “Separation between the dose enhancing place-visual cue learning (0.03 mg/kg i.p.) and the lowest dose producing salivation” value is “ten-fold lower”.
